Assay results: patent US20210330756A1, “Acetylation of Miro1” (University of South Carolina, priority 2020, published 2021)

How the values were obtained:
[1] = tested on: axonal mitochondrial transport in DRG neurons; test: FRAP of Mito-GFP in distal axons of DRG neurons; format: cell-based, rat; conditions: for effect on MAG-Fc-dependent decrease in Mito-GFP recovery / mitochondrial transport: pretreatment: TubA 10 μM, Y27632 10 μM or BAPTA-AM 3 μM
Protocol: MAG or Aggrecan exposures were performed as bath application or on coated substrates. For bath application, dissociated DRGs were cultured for 48 h and treated with 25 μg/ml of MAG-Fc (R&D Systems; 538-MG), 25 μg/ml Fc control (R&D Systems; 110-HG), or 10 μg/ml of Aggrecan (Sigma-Aldrich; A1960) for 4 h. Cultures were pretreated with either Ca^2+ chelator BAPTA-AM (3 μM; Sigma-Aldrich; A1076), ROCK inhibitor Y27632 (10 μM; Sigma-Aldrich; SCM075), HDAC6 inhibitor TubA (10 μM; R&D Systems; 6270), Thapsigargin (1 μM; Sigma-Aldrich; T9033), Rho Activator II (1 μg/ml; Cytoskeleton; CNO3), or equivalent volume DMSO 30 min before MAG-Fc, Aggrecan, or controls. For substrate-bound experiments, adult DRGs were cultured on glass bottom dishes (Greiner) that were coated with 25 μg/ml Aggrecan in addition to the laminin/poly-D-lysine substrate.
Mito-KR- and Mito-GFP-expressing DRG neurons were used for FRAP analyses at 48-72 h after transfection. To evaluate mitochondrial motility in Mito-KR-expressing neurons, Mito-KR signals were photobleached using continual exposure to an argon laser set at 594 nm for 30 s (100% laser power) The bleached ROI was then monitored for recovery using an argon laser set at 580 nm every 10 s over 16 min (13% laser power). For FRAP analyses with Mito-GFP, GFP signals were photobleached in a 50 μm ROI using an argon laser set at 488 nm every 10 s for 16 min (70% laser power). The same excitation was used for post-bleach imaging to assess recovery every 10 s for 16 min. For axon shaft FRAP experiments in Mito-GFP-expressing neurons, ROIs of ˜50 μm in length (without branches) were imaged >100 μm proximal to the growth cone. Prebleach, bleach, and post-bleach sequences were the same as for Mito-GFP above. In all cases, neurons were imaged over 40 s or more to acquire baseline Mito-KR or Mito-GFP signals before photobleaching using an argon laser (580 nm at 13% power for Mito-KR and 488 nm at 31% power for Mito-GFP).
Vesicle trafficking was quantified using differential ImageJ Difference Tracker Plug-in (Andrews et al., 2010). 50-80-μm long unbranched axon segments at approximately the mid-region between growth cone and cell body were analyzed. Kymographs were generated using ImageJ Kymograph Plug-in. For analyses of axon retraction in the CALI experiment, the distance from the distal tip of the growth cone in the pre-CALI image sequence was used as the baseline (t=1 min). The distance between the growth tip at end of the post-CALI sequence and the pre-CALI baseline was measured using LAS-X software. Movement of ≥0.5 μm toward the axon shaft was counted as retracted. Fluorescence emission of the Mito-KR post-CALI was analyzed using ImageJ. For normalizing intensities across FRAP image sets, fluorescence intensity at each time point was scaled using the LAS-X FRAP module so that the residual fluorescence signal at t=0 min (post-bleach) was set at 0 and the prebleach intensity was set at 100% for each bleached ROI. For axon shaft FRAP analyses, each 50-μm bleached ROI was divided into […], and the fluorescence intensity recovery was measured as described above. EMs at 1,900× and 4,800× magnification across the crosssectional surface of each sciatic nerve were used for in vivo analyses of mitochondrial content. A minimum of 75 unmyelinated axons was analyzed for each nerve. All unmyelinated axons from each analyzed image were included for quantitative studies. The total number of mitochondria was determined in each unmyelinated axon in the field and was divided by the total number of unmyelinated axons for all subjects. […] was determined by changes in JC-1 fluorescence. JC-1 exists either as a green fluorescent monomer at depolarized membrane potentials or as an orange-red fluorescent aggregate at hyperpolarized membrane potentials. […]

Ac-histone H4 = test: Immunoblotting for Ac-histone H4 in adult DRG neurons (HDAC specificity); format: cell-based, rat
Protocol: We tested for this specificity in the adult DRG neurons from above by immunoblotting. […] (A) Number of mitochondria in growth cones after exposing DRG cultures to 10 μM TubA versus vehicle (control) for 1 h is shown as average fold-change in number of mitochondria per growth cone±SEM (n=13 axons across three culture preparations; *, P≤0.05 by one-way ANOVA with Bonferroni post hoc analysis). (B) Representative EMs of Remak bundles (arrowheads) in naive Sciatic nerve and nerves after 2 h vehicle (DMSO) or TubA injection are shown. Arrows indicate mitochondria in the unmyelinated axons. Note that a Schwann cell nucleus (asterisk) is seen in the Remak bundle for DMSO image but not the other two micrographs (scale bar=3 μm). (C) Quantification of number of mitochondria per unmyelinated axon from EM images as in B is shown as average±SEM (n≥5; *****, P≤0.0001 by one-way ANOVA with Bonferroni post hoc analysis). (D-F) Quantification for indicated parameters for mitochondrial transport in sciatic nerve in vivo using tetramethylrhodamine, ethyl ester, perchlorate to visualize mitochondria is shown.
For immunoblotting, protein lysates or immunoprecipitates were denatured by boiling in Laemmli sample buffer, fractionated by SDS-PAGE, and transferred to nitrocellulose membranes. Blots were blocked for 1 h at room temperature with 5% nonfat dry milk in TBS with 0.1% Tween 20 (TBST). Primary antibodies diluted in 5% BSA in TBST were added to the membranes and incubated overnight at 4° C. with rocking. Primary antibodies consisted of rabbit anti-Myc (1:2,000; Cell Signaling; 71D10), rabbit anti-RHOT1 antibody (1:1,000; Aviva Systems Biology; ARP44817 P050), rabbit anti-HDAC6 antibody (1:2,000; Cell Signaling; 7558), rabbit anti-ERK1 (1:5,000; Abcam; ab32537), and affinity-purified custom rabbit anti-Miro1-AcK105 (1:2,500; Twiss laboratory, see above) antibodies. For the anti-Miro1-AcK105 antibody, preimmune and test-bleed sera were used at 1:1,000 dilutions to initially evaluate for specificity. After washing in TBST, blots were incubated with HRP-conjugated anti-rabbit IgG antibodies (1:5,000; Jackson Immunoresearch) diluted in blocking buffer for 1 h at room temperature. Signals were detected using ECL Prime (GE Healthcare) after extensive washing.

C[C@@H](N)[C@H]1CC[C@H](C(=O)Nc2ccncc2)CC1 [Y27632]
additive or synergistic effect when combined with 3 μM BAPTA-AM ([1]; MAG-Fc, Mito-GFP FRAP): no additive or synergistic effect
additive or synergistic effect when combined with 10 μM TubA ([1]; MAG-Fc, Mito-GFP FRAP): no additive or synergistic effect
additive effect when combined with 10 μM TubA ([1]; aggrecan 10 μg/ml, Mito-GFP FRAP): no significant additive effects
effect on aggrecan-dependent decrease in Mito-GFP recovery ([1]; aggrecan 10 μg/ml, TubA 10 μM or Y27632 10 μM): prevented the aggrecan dependent decrease in Mito-GFP recovery
effect on MAG-Fc-dependent decrease in Mito-GFP recovery / mitochondrial transport ([1]; 960 s after bleach): similarly blocked the decline in mitochondrial transport
effect on MAG-Fc-dependent decrease in Mito-GFP recovery / mitochondrial transport ([1]; 960 s after bleach, listed as ROCK inhibitor): similarly prevented the MAG-dependent decrease in mitochondrial transport

CC(=O)OCOC(=O)CN(CC(=O)OCOC(C)=O)c1ccccc1OCCOc1ccccc1N(CC(=O)OCOC(C)=O)CC(=O)OCOC(C)=O [BAPTA-AM]
basal Mito-GFP FRAP recovery after the first 5 min ([1]; 3 μM): no different than recovery in untreated cultures
basal Mito-GFP FRAP recovery in distal axons, first 5 min after bleach ([1]; 3 μM): increased recovery
effect on decrease in axonal mitochondrial transport seen upon direct activation of RhoA ([1]; 3 μM BAPTA-AM + 1 μg/ml Rho activator, 960 s after bleach): completely abrogated the decrease in axonal mitochondrial transport
additive or synergistic effect when combined with 10 μM TubA ([1]; MAG-Fc, Mito-GFP FRAP): No significant additive effects
effect on MAG-Fc-dependent decrease in Mito-GFP recovery / mitochondrial transport ([1]; 960 s after bleach): prevented the MAG-Fc attenuation of axonal mitochondrial transport

O=C(CCCN1C(=O)c2cccc3cccc(c23)C1=O)NO [Nullscript]
Ac-histone H4 levels (Ac-histone H4; 6.3 μM): no change in Ac-histone H4 levels

O=C(CCCCCN1C(=O)c2cccc3cccc(c23)C1=O)NO [Scriptaid]
Ac-histone H4 levels (Ac-histone H4; Scriptaid, concentration not given): clear increase in Ac-histone H4 levels
